Laboratory results published in patent publication US7153852B2, “Indole compounds, process for producing the same and drugs containing the same as the active ingredient” (Ono Pharmaceutical Co., Ltd., priority 2001, dated 2006).

Target: T1, mouse DP receptors (Mus musculus, UniProt P70263)
T1 construct: expressed in transfected cells; host or cells: CHO cells (membrane preparation)
T1 sequence (P70263 1-357): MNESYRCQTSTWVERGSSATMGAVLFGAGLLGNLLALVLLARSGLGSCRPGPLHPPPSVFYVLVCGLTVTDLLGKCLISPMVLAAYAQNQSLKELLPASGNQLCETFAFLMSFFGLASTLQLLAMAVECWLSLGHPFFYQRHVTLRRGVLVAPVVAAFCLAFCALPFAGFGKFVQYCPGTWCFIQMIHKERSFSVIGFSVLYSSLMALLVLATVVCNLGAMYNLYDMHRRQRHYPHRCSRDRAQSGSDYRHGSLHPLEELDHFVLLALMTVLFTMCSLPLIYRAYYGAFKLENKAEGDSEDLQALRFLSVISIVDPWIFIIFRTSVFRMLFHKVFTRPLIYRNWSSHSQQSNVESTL
Experiment: Receptor binding test using prostanoid DP receptor-expressing cells (3H-PGD2 binding inhibition)
Conditions: membrane of CHO cells expressing mouse DP receptors; 3H-PGD2 2.5 nmol/L; Ki=IC50/(1+([L]*/Kd))
Method: (i) Receptor Binding Test Using Prostanoid DP Receptor-Expressing Cells
CHO cells expressing mouse DP receptors were prepared according to the method of Hirata et al. (Proc. Natl. Acad. Sci., 91, 11192–11196 (1994)) and used as a membrane standard.
A reaction solution (200 μL) containing the prepared membrane standard (30–166 μg) and ^3H-PGD2 was incubated at room temperature for 20 minutes. The reaction was stopped with an ice-cold buffer (1 mL) and the binding ^3H-PGD2 was trapped in on a glass filter by immediate aspiration-filtration under a reduced pressure, and its binding radioactivity was measured using a liquid scintillation counter.
Kd value and Bmax value were obtained from Scatchard plots (Ann. N. Y. Acad. Sci., 51, 660 (1949)]. Non-specific binding was obtained as the binding radioactivity in the presence of unlabeled PGD2 at an excess amount (10 μmol/L). 3H-PGD2 binding inhibition by the compound of the present invention was measured by adding ^3H-PGD2 (2.5 nmol/L) and the compound of the present invention as various concentrations. Also, the following buffers were used for the reactions.
The dissociation constant (Ki) (μmol/L) of each compound was obtained by the following equation. Ki=IC50/(1+([L]*/Kd)) • [L*]: Concentration of radioligand

Cc1cc2c(CC(=O)O)cccc2n1C(=O)c1ccc(OC[C@H]2Cc3ccccc3O2)cc1 [2(16), 1-(4-((2R)-2,3-dihydrobenzofuran-2-ylmethoxy)benzoyl)-2-methyl-1H-indol-4-ylacetic acid]
Ki: 31 nM
